Experimental data from patent US20210094973A1, “HETEROCYCLIC COMPOUNDS” (Hoffmann-La Roche Inc., priority 2019, published 2021).
pIC50: −log10 of the molar value.

molecular target: T1, MAGL (Homo sapiens, UniProt Q99685); assay: 2-AG assay (MAGL inhibitory activity, hydrolysis of 2-arachidonoylglycerol followed by mass spectrometry); assay type: biochemical; settings: 15 min preincubation at RT, 8 μM 2-arachidonoylglycerol, 30 min at RT, arachidonic acid by MS
T1 sequence (Q99685 1-303): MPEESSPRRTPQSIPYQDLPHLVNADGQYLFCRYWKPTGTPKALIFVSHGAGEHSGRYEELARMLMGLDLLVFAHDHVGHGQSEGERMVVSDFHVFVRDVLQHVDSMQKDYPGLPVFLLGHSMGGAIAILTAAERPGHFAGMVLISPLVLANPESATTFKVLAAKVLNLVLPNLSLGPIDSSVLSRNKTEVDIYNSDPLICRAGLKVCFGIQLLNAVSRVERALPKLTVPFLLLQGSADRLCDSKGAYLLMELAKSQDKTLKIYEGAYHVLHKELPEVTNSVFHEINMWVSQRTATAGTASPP
Method: Compounds were profiled for MAGL inhibitory activity by determining the enzymatic activity by following the hydrolysis of the natural substrate 2-arachidonoylglycerol (2-AG) resulting in arachidonic acid, which can be followed by mass spectrometry. This assay is hereinafter abbreviated “2-AG assay”.
The 2-AG assay was carried out in 384 well assay plates (PP, Greiner Cat #784201) in a total volume of 20 μL. Compound dilutions were made in 100% DMSO (VWR Chemicals 23500.297) in a polypropylene plate in 3-fold dilution steps to give a final concentration range in the assay from 12.5 μM to […]. 0.25 μL compound dilutions (100% DMSO) were added to 9 μL MAGL in assay buffer (50 mM TRIS (GIBCO, 15567-027), 1 mM EDTA (Fluka, 03690-100 mL), 0.01% (v/v) Tween. After shaking, the plate was incubated for 15 min at RT. To start the reaction, 10 μL 2-arachidonoylglycerol in assay buffer was added. The final concentrations in the assay was […] and 8 μM 2-arachidonoylglyerol. After shaking and 30 min incubation at RT, the reaction was quenched by the addition of 40 μL of ACN containing 4 μM of d8-arachidonic acid. The amount of arachidonic acid was traced by an online SPE system (Agilent Rapidfire) coupled to a triple quadrupole mass spectrometer (Agilent 6460). A C18 SPE cartridge (G9205A) was used in an ACN/water liquid setup. The mass spectrometer was operated in negative electrospray mode following the mass transitions 303.1→259.1 for arachidonic acid and 311.1→267.0 for d8-arachidonic acid. The activity of the compounds was calculated based on the ratio of intensities [arachidonic acid/d8-arachidonic acid].

| Compound | pIC50 |
| --- | --- |
| O=C1CO[C@H]2CCN(C(=O)N3CC(c4ccc(C5CCOC5)cc4)C3)C[C@H]2N1 (single isomer, unassigned) [Example 1, (4aR,8aS)-6-[3-[4-[(3R or S)-Tetrahydrofuran-3-yl]phenyl]azetidine-1-carbonyl]-4,4a,5,7,8,8a-hexahydropyrido[4,3-b][1,4]oxazin-3-one] | 7.48 |
| O=C1CO[C@H]2CCN(C(=O)N3CC(c4ccc(C5CCOC5)cc4)C3)C[C@H]2N1 (single isomer, unassigned) [Example 2, (4aR,8aS)-6-[3-[4-[(3S or R)-Tetrahydrofuran-3-yl]phenyl]azetidine-1-carbonyl]-4,4a,5,7,8,8a-hexahydropyrido[4,3-b][1,4]oxazin-3-one] | 7.38 |
| CC1C(OCc2c(F)cccc2C(F)(F)F)CN1C(=O)N1CC[C@@H]2OCC(=O)N[C@@H]2C1 (single isomer, unassigned) [Example 27] | 7.73 |
| CC1C(OCc2c(F)cccc2C(F)(F)F)CN1C(=O)N1CC[C@@H]2OCC(=O)N[C@@H]2C1 (single isomer, unassigned) [Example 28] | 6.47 |
| CC1C(OCc2c(F)cccc2C(F)(F)F)CN1C(=O)N1CC[C@@H]2OCC(=O)N[C@@H]2C1 (single isomer, unassigned) [Example 29] | 6.39 |
| O=C1CO[C@H]2CCN(C(=O)N3CC(c4ccc(OC5CC(F)(F)C5)cc4)C3)C[C@H]2N1 [Example 3, (4aR,8aS)-6-[3-[4-(3,3-Difluorocyclobutoxy)phenyl]azetidine-1-carbonyl]-4,4a,5,7,8,8a-hexahydropyrido[4,3-b][1,4]oxazin-3-one] | 8.39 |
| CC(C)Oc1ccc(C2CN(C(=O)N3CC[C@@H]4OCC(=O)N[C@@H]4C3)C2)cc1 [Example 4, (4aR,8aS)-6-[3-(4-Isopropoxyphenyl)azetidine-1-carbonyl]-4,4a,5,7,8,8a-hexahydropyrido[4,3-b][1,4]oxazin-3-one] | 8.15 |
| O=C1CO[C@H]2CCN(C(=O)N3CC(c4ccc(C5CCOCC5)cc4)C3)C[C@H]2N1 [Example 5, (4aR,8aS)-6-[3-(4-Tetrahydropyran-4-ylphenyl)azetidine-1-carbonyl]-4,4a,5,7,8,8a-hexahydropyrido[4,3-b][1,4]oxazin-3-one] | 8.22 |
| O=C1CO[C@H]2CCN(C(=O)N3CC(c4ccc(C5CC(F)(F)C5)cc4)C3)C[C@H]2N1 [Example 6, (4aR,8aS)-6-[3-[4-(3,3-Difluorocyclobutyl)phenyl]azetidine-1-carbonyl]-4,4a,5,7,8,8a-hexahydropyrido[4,3-b][1,4]oxazin-3-one] | 8.54 |
| O=C1CO[C@H]2CCN(C(=O)N3CC(c4nsc(-c5ccc(Cl)cc5Cl)n4)C3)C[C@H]2N1 [Example 7, (4aR,8aS)-6-[3-[5-(2,4-Dichlorophenyl)-1,2,4-thiadiazol-3-yl]azetidine-1-carbonyl]-4,4a,5,7,8,8a-hexahydropyrido[4,3-b][1,4]oxazin-3-one] | 8.04 |
| O=C1CO[C@H]2CCN(C(=O)N3CC(c4cn(-c5ccc(Cl)cc5Cl)cn4)C3)C[C@H]2N1 [Example 8, (4aR,8aS)-6-[3-[1-(2,4-Dichlorophenyl)imidazol-4-yl]azetidine-1-carbonyl]-4,4a,5,7,8,8a-hexahydropyrido[4,3-b][1,4]oxazin-3-one] | 7.41 |
| O=C1CO[C@H]2CCN(C(=O)N3CC(c4nc(-c5ccc(Cl)cc5C(F)(F)F)no4)C3)C[C@H]2N1 [Example 9, (4aR,8aS)-6-[3-[3-[4-Chloro-2-(trifluoromethyl)phenyl]-1,2,4-oxadiazol-5-yl]azetidine-1-carbonyl]-4,4a,5,7,8,8a-hexahydropyrido[4,3-b][1,4]oxazin-3-one] | 7.63 |
| CC1(C)CCc2cc(C3CN(C(=O)N4CC[C@@H]5OCC(=O)N[C@@H]5C4)C3)ccc2O1 [Example 10, (4aR,8aS)-6-(3-(2,2-Dimethylchroman-6-yl)azetidine-1-carbonyl)hexahydro-2H-pyrido[4,3-b][1,4]oxazin-3(4H)-one] | 8.22 |
| CC(C)COc1ccc(C2CN(C(=O)N3CC[C@@H]4OCC(=O)N[C@@H]4C3)C2)cc1 [Example 11, (4aR,8aS)-6-(3-(4-Isobutoxyphenyl)azetidine-1-carbonyl)hexahydro-2H-pyrido[4,3-b][1,4]oxazin-3(4H)-one] | 8.82 |
| CC(C)(Oc1ccc(C2CN(C(=O)N3CC[C@@H]4OCC(=O)N[C@@H]4C3)C2)cc1)C(F)(F)F [Example 12, (4aR,8aS)-6-[3-[4-(2,2,2-Trifluoro-1,1-dimethyl-ethoxy)phenyl]azetidine-1-carbonyl]-4,4a,5,7,8,8a-hexahydropyrido[4,3-b][1,4]oxazin-3-one] | 9.52 |
| O=C1CO[C@H]2CCN(C(=O)N3CC(c4ccc(OC5CCCC5)cc4)C3)C[C@H]2N1 [Example 13, (4aR,8aS)-6-(3-(4-(Cyclopentyloxy)phenyl)azetidine-1-carbonyl)hexahydro-2H-pyrido[4,3-b][1,4]oxazin-3(4H)-one] | 9.22 |
| CC1(C)CCOc2ccc(C3CN(C(=O)N4CC[C@@H]5OCC(=O)N[C@@H]5C4)C3)cc21 [Example 14, (4aR,8aS)-6-(3-(4,4-Dimethylchroman-6-yl)azetidine-1-carbonyl)hexahydro-2H-pyrido[4,3-b][1,4]oxazin-3(4H)-one] | 7.58 |
| O=C1CO[C@H]2CCN(C(=O)N3CC(c4ccc(OCC5CC5)cc4)C3)C[C@H]2N1 [Example 15, (4aR,8aS)-6-(3-(4-(Cyclopropylmethoxy)phenyl)azetidine-1-carbonyl)hexahydro-2H-pyrido[4,3-b][1,4]oxazin-3(4H)-one] | 8.06 |
| O=C1CO[C@H]2CCN(C(=O)N3CC(c4nc(-c5ccc(Cl)cc5Cl)no4)C3)C[C@H]2N1 [Example 16, (4aR,8aS)-6-[3-[3-(2,4-Dichlorophenyl)-1,2,4-oxadiazol-5-yl]azetidine-1-carbonyl]-4,4a,5,7,8,8a-hexahydropyrido[4,3-b][1,4]oxazin-3-one] | 7.61 |
| Cn1ncc2cc(C3CN(C(=O)N4CC[C@@H]5OCC(=O)N[C@@H]5C4)C3)ccc21 [Example 17, (4aR,8aS)-6-(3-(1-Methyl-1H-indazol-5-yl)azetidine-1-carbonyl)hexahydro-2H-pyrido[4,3-b][1,4]oxazin-3(4H)-one] | 6.77 |
| O=C1CO[C@H]2CCN(C(=O)N3CC(c4noc(-c5ccc(Cl)cc5Cl)n4)C3)C[C@H]2N1 [Example 18, (4aR,8aS)-6-(3-(5-(2,4-Dichlorophenyl)-1,2,4-oxadiazol-3-yl)azetidine-1-carbonyl)hexahydro-2H-pyrido[4,3-b][1,4]oxazin-3(4H)-one] | 7.41 |
| O=C1CO[C@H]2CCN(C(=O)N3CC(c4cccc(OC(F)(F)F)c4)C3)C[C@H]2N1 [Example 19, (4aR,8aS)-6-(3-(3-(Trifluoromethoxy)phenyl)azetidine-1-carbonyl)hexahydro-2H-pyrido[4,3-b][1,4]oxazin-3(4H)-one] | 7.36 |
| O=C1CO[C@H]2CCN(C(=O)N3CCC(c4ccn(-c5ccc(F)cc5)n4)CC3)C[C@H]2N1 [Example 20, (4aR,8aS)-6-(4-(1-(4-Fluorophenyl)-1H-pyrazol-3-yl)piperidine-1-carbonyl)hexahydro-2H-pyrido[4,3-b][1,4]oxazin-3(4H)-one] | 6.83 |
| O=C1CO[C@H]2CCN(C(=O)N3CC(OCc4c(Cl)cccc4Cl)C3)C[C@H]2N1 [Example 21, (4aR,8aS)-6-(3-((2,6-Dichlorobenzyl)oxy)azetidine-1-carbonyl)hexahydro-2H-pyrido[4,3-b][1,4]oxazin-3(4H)-one] | 7.56 |
| O=C1CO[C@H]2CCN(C(=O)N3CC(OCc4cc(Cl)cc(Cl)c4)C3)C[C@H]2N1 [Example 22, (4aR,8aS)-6-(3-((3,5-Dichlorobenzyl)oxy)azetidine-1-carbonyl)hexahydro-2H-pyrido[4,3-b][1,4]oxazin-3(4H)-one] | 7.87 |
| Cc1c(CC2CCN(C(=O)N3CC[C@@H]4OCC(=O)N[C@@H]4C3)CC2)cncc1C1CC1 [Example 23, (4aR,8aS)-6-(4-((5-Cyclopropyl-4-methylpyridin-3-yl)methyl)piperidine-1-carbonyl)hexahydro-2H-pyrido[4,3-b][1,4]oxazin-3(4H)-one] | 6.92 |
| O=C1CO[C@H]2CCN(C(=O)N3CCC(OCc4ccc(C(F)(F)F)cc4)CC3)C[C@H]2N1 [Example 24, (4aR,8aS)-6-(4-((4-(Trifluoromethyl)benzyl)oxy)piperidine-1-carbonyl)hexahydro-2H-pyrido[4,3-b][1,4]oxazin-3(4H)-one] | 7.21 |
